Entries after “also recorded” stand apart in the source; their conditions may differ. Counter-ions that a name gives are not always drawn.

Experiment [1] deals with human melanoma cells (MeWo, MeWo-LM2, HT-144, SK-Mel-2, SK-Mel-334.2). Description: Trans-well matrigel cell invasion assay, melanoma cells. In kind it is cell-based. The protocol:
Cancer cells were serum-starved in 0.2% FBS DMEM-based media for 12 hours. Trans-well invasion chambers (354480, BD Biosciences, Bedford, Mass.) were pre-equilibrated prior to beginning the assay by adding 0.5 mL of starvation media to the top and bottom chambers. After 30 minutes, the media in the top chamber was removed, and 0.5 mL of media containing 1×10^5 cancer cells was added into each matrigel-coated trans-well insert and incubated at 37° C. for 24 hours. For neutralization antibody and/or recombinant protein experiments, antibody/recombinant protein was added to each well at the start of the assay at the following concentrations as indicated in the figures: 5-40 μg/mL anti-ApoE 1D7 (Heart Institute, University of Ottawa), 5-40 μg/mL anti-IgG (AB-108-C, R&D Systems, Minneapolis, Minn.), 100 μM recombinant human ApoE3 (4696, BioVision, Mountain View, Calif.), and 100 μM BSA (A2153, Sigma-Aldrich). Upon completion of the assay, matrigel-coated inserts were washed with PBS, the cells at the top side of each insert were scraped off, and the inserts were fixed in 4% paraformaldehyde for 15 minutes. The inserts were then cut out and mounted onto slides using VectaShield mounting medium containing DAPI (H-1000, Vector Laboratories, Burlingame, Calif.). The basal side of each insert was imaged using an inverted fluorescence microscope (Zeiss Axiovert 40 CFL) at 5× magnification, taking three representative images for each insert. The number of invaded cells was quantified using ImageJ (NIH).
The cell invasion assay was performed as previously described in detail (Pencheva et al., 2012) using a trans-well matrigel invasion chamber system (354480, BD Biosciences). In brief, various melanoma cells were cultured in the presence of DMSO, GW3965, T0901317, or Bexarotene at 1 μM for 56 hours, after which melanoma cells were switched to starvation media (0.2% FBS) for 16 hours in the presence of each drug. Following starvation, cells were seeded into matrigel-coated trans-well inserts, and the invasion assay was allowed to proceed for 24 hours at 37° C. For ApoE antibody neutralization experiments, 40 μg/mL 1D7 anti-ApoE blocking antibody (Heart Institute, University of Ottawa, Ottawa, Canada) or 40p, g/mL anti-IgG control antibody (AB-108-C, R&D Systems, Minneapolis, Minn.) was added to each trans-well insert at the start of the assay.
The cells were then serum starved for 16 hours in 0.2% FBS media in the presence of each corresponding drug or DMSO. […] Meanwhile, cancer cells were trypsinized and viable cells were counted using trypan blue. […] The basal side of each insert was imaged using an inverted fluorescence microscope (Zeiss Axiovert 40 CFL) at 5× magnification, and the number of DAPI-positive cells was quantified using ImageJ.

For experiment [2], the system named is human melanoma cells and endothelial cells. Description: In vitro cell proliferation, viability and serum starvation survival. In kind it is cell-based. The following applies: for cell proliferation or cell viability rates: MeWo, HT-144, SK-Mel-334.2 cells, 1 μM, 5 days. The procedure: To determine the effects of miR-199a or miR-1908 over-expression and combinatorial LNA-induced miRNA inhibition on cell proliferation, 2.5×10^4 cells were seeded in triplicate in 6-well plates, and viable cells were counted after 5 days. […] Viable cells were counted after 8, 24, 48, 72, and 120 hours.
The number of viable cells was counter after 8, 16, and 24 hours.
To determine the effects of GW3965, T0901317, and Bexarotene on in vitro cell growth, 2.5×10^4 melanoma cells were seeded in triplicate in 6-well plates and cultured in the presence of DMSO, GW3965, T0901317, or Bexarotene at 1 μM each. After 5 days, the number of viable and dead cells was counted using the trypan blue dye (72-57-1, Sigma-Aldrich), which selectively labels dead cells.

In experiment [3] the test system is ApoE. Description: Gene expression analysis by qRT-PCR in melanoma cells. The conditions noted are these: 48 hours; for ApoE transcript expression: MeWo, HT-144, WM-266-4 human melanoma lines. In kind it is cell-based, human. The protocol: Total RNA was extracted from various cell lines using the miRvana kit (AM1560, Applied Biosystems, Austin, Tex.). The expression levels of mature miRNAs were quantified using the Taqman miRNA expression assay (4427975-0002228, Applied Biosystems). RNU44 was used as an endogenous control for normalization. For mRNA expression analyses, 600 ng of total RNA was reverse transcribed using the cDNA First-Strand Synthesis Kit (18080-051, Invitrogen), and roughly 200 ng of the resulting cDNA was then mixed with SYBR green PCR Master Mix (4309155, Applied Biosystems) and the appropriate primers. Each reaction was performed in quadruplicate, and mRNA expression was quantified by performing real-time PCR amplification using an ABI Prism 7900HT Real-Time PCR System (Applied Biosystems). GAPDH was used as an endogenous control for normalization. The following primers were used: […]
RNA was extracted from whole cell lysates using the Total RNA Purification Kit (I 7200, Norgen, Thorold, Canada). 600 ng of total RNA was then reverse transcribed into cDNA using the cDNA First-Strand Synthesis Kit (18080-051, Invitrogen), and quantitative real-time PCR amplification was performed as previously described (Pencheva et al., 2012) using an ABI Prism 7900HT Real-Time PCR System (Applied Biosystems, Austin, Tex.). Each PCR reaction was carried out in quadruplicates. Gene expression was normalized to GAPDH, which was used as an endogenous control.
For every sample, 600 ng of RNA was reverse transcribed into cDNA using the cDNA First-Strand Synthesis kit (Invitrogen). Approximately 200 ng of cDNA was mixed with SYBR® green PCR Master Mix and the corresponding forward and reverse primers specific for detection of human ApoE. Each reaction was carried out in quadruplicates, and ApoE mRNA expression levels were measured by quantitative real-time PCR amplification using an ABI Prism 7900HT Real-Time PCR System (Applied Biosystems). The relative ApoE expression was determined using the ΔΔCt method. GAPDH was used as an endogenous control for normalization purposes.

The mark [4] stands for this setting: MeWo-LM2 or endothelial cells, ApoE 100 μM.

Consider `O=C(O)Cc1cccc(OCCCN(Cc2cccc(C(F)(F)F)c2Cl)CC(c2ccccc2)c2ccccc2)c1` [GW3965 2, 3-[3-[N-(2-Chloro-3-trifluoromethylbenzyl)-(2,2-diphenylethyl)amino]propyloxy]phenylacetic acid hydrochloride], for which the tumor cell invasion entry in experiment [1] (parental MeWo cells pre-treated 48 hours) is given as “decreased”. The “cell proliferation or cell viability rates” value in experiment [2] is reported as “did not affect”. Moreover, in experiment [3], the ApoE transcript expression entry is reported as “potently induce”. For the same molecule, in experiment [3] (parental MeWo cells), the “expression of ApoE” value is recorded as “increased” and the “expression of DNAJA4” value is on record as “increased”.

`CC(CCOc1cccc(CC(=O)O)c1)N(Cc1cccc(C(F)(F)F)c1Cl)CC(c1ccccc1)c1ccccc1` (stereo not drawn) [SB742881 25]: in experiment [1] (MeWo cells, 1 μM for 72 hours, compared with lower potency LXR agonists), the “inhibition of cancer progression phenotypes (cell invasion, endothelial recruitment)” value is recorded as “more effective”. Besides, in experiment [3] (MeWo cells, 500 nM, 1 μM or 2 μM), the ApoE expression induction entry is on record as “varied degrees of ApoE expression induction; also recorded: potently induce”.

On to `O=S(=O)(c1ccccc1)N(CC(F)(F)F)c1ccc(C(O)(C(F)(F)F)C(F)(F)F)cc1` [T0901317 1], for which, in experiment [2], the “cell proliferation or cell viability rates” value is given as “did not affect”. For the same molecule, the ApoE transcript expression result in experiment [3] is on record as “potently induce”.

Take “recombinant human ApoE3: recombinant human ApoE3 (4696, BioVision)”: the “invasion by metastatic LM2 cells” value in experiment [1] (recombinant ApoE3 100 μM in cell media) is on record as “significantly suppressed”. Moreover, in experiment [2] (setting [4]), the “melanoma cell or endothelial cell in vitro proliferation” value is listed as “did not affect” and the “survival in serum starvation conditions” value was “did not affect”.

These data come from patent US9399028B2, “Treatment of drug resistant cancer” (ROCKEFELLER UNIVERSITY (THE), priority 2012, dated 2016).
